According to US9034906B2, “EP4 agonist” (Asahi Glass Company, Limited, priority 2008, dated 2015):

How the values were obtained:
[1] = In vitro metabolic stability: NADPH-independent β oxidation reaction in rat liver mitochondria fraction; format: in vitro ADME; conditions: 37° C., 30 min, tested as isomer mixtures, average±SD of 3 experiments
Protocol: A mixture of the compound F and compound J of the present invention described in Table 1 (F:J=52:41, synthesized in Example 14), and a mixture of compounds wherein the tetrazole groups at C-1 of compound F and compound J are respectively substituted by carboxylic acid (referred to as carboxylate form, F:J=54:34, synthesized in Example 15) were tested.
First, a mitochondria fraction was prepared from the rat liver according to the following Reference A. Then, in reference to the method of […] et al. described in the following References B and C, an NADPH-independent β oxidation reaction was studied. The reaction was carried out at 37° C. for 30 min, and stopped with a methanol solution containing a suitable internal standard substance. Each compound was quantified by the internal standard method using a high performance liquid chromatography mass spectrometry apparatus (LC-MS/MS). The compound residual ratio after metabolic reaction of compounds F, J and each carboxylate form thereof in rat mitochondria fraction is shown in the following Table 2 in average±standard deviation of 3 experiments.

[2] = system: dextran sodium sulfate-induced colitis; assay: Dextran sodium sulfate-induced colitis model in mice (C57BL/6); format: in vivo, mouse; conditions: C57BL/6 mice, DSS, oral 0.3 and 1 mg/kg once a day
Protocol: Whether or not an IP agonist has an effect on such colitis model was determined using a selective IP agonist, BPS.
Female C57BL/6 mice (6 weeks old, Japan SLC) were purchased, acclimated for 1 week and used for the study. Except the normal group, the mice were allowed to freely drink a 3 or 2 w/v % DSS (MP Biochemicals, Lot No. 5653H and 5464H, respectively) solution for 1 week to induce colitis. BPS at a dose of 0.3 mg/kg and compound F at doses of 0.3 and 1 mg/kg were orally administered once a day, daily, from the start day of DSS drinking (day 0) to one day before autopsy (day 9). To the control group was orally administered a solvent (1 vol % ethanol solution) at 10 mL/kg in the same manner. The consistency of the stool was graded from score 0 to 4, with normal (0), partly loose stool (1), loose stool (2) and diarrhea (4). The blood feces was also graded from score 0 to 4, with normal (0), partly blood feces (1), blood feces (2) and blood feces plus proctorrhagia (4). The sum of both grades was defined as the stool score (maximum 8). Furthermore, the length of the large intestine was measured in the same manner as in Example 23. Six to 10 animals were used for each group, and the results are shown in average±standard deviation.

[3] = Effect on blood pressure and heart rate in mice; format: in vivo, mouse; conditions: ICR mice, intravenous 0.01 mg/kg, isoflurane anesthesia
Protocol: Male ICR mice (5 weeks old, Japan SLC) were purchased, acclimated for 6 days and used for the test. The animals were treated and measured under isoflurane inhalation anesthesia (anesthesia introduced at 2.5%, maintained at 1.8-2.1%), while body temperature was kept at 37° C. with a Heat Controller (ATC-402, Unique Medical Co., Ltd.). A catheter for administration of test compounds was inserted into the left femoral vein, and another catheter was inserted into the right femoral artery and connected to a pressure transducer to record each parameter of hemodynamics.
Compound F, the carboxylate form of compound F and BPS were intravenously administered at a dose of 0.01 mg/5 mL/kg, and the effect on the mean blood pressure and heart rate was evaluated with computer software for the analysis of hemodynamics (Fluclet, Dainippon Sumitomo Pharma Co., Ltd.). To the control group was intravenously administered a solvent (1.2% ethanol solution) at 5 mL/kg in the same manner. The results are expressed as a ratio of change in each parameter before and after the drug administration. Three to 6 animals were used for each group, and the results were expressed as average±standard deviation.

[4] = system: concanavalin A-induced hepatitis; assay: Concanavalin A-induced hepatitis model in mice, prophylactic; format: in vivo, mouse; conditions: BALB/c mice, oral 1 hr before Con A; compound F 1 mg/10 mL/kg, prednisolone 5 mg/10 mL/kg
Protocol: The prophylactic effect of compound F on hepatitis was investigated using concanavalin A (hereinafter Con A)-induced hepatitis model.
BALB/c mice (female, 7 weeks old, Japan SLC) were purchased, acclimated for 1 week and used for the study. Except the no-induction group, Con A (type IV, Sigma-Aldrich) dissolved in saline was administered from the tail vein of the mice at a dose of 12.5 mg/10 mL/kg to induce hepatitis. Twenty hr later, the mice were subjected to laparotomy under ether anesthesia. A 0.5 mL of blood sample was collected from the caudal vena cava and heparinized plasma was obtained to measure plasma ALT and AST activities. Test substances were compound F (1 mg/10 mL solution), prednisolone (Nacalai Tesque, 5 mg/10 mL suspension (with 0.5 w/v % methylcellulose)) and water for injection (administered to the control group), which were orally administered at a volume of 10 mL/kg 1 hr before Con A injection. Seven to 9 animals were used for each group. After logarithmic transformation of the data, one-way analysis of variance was performed for statistical evaluation.

[5] = system: dextran sodium sulfate-induced colitis; assay: Dextran sodium sulfate-induced colitis in rats, prophylactic; format: in vivo, rat; conditions: SD rats, 5.5 w/v % DSS, oral 1 mg/kg and 3 mg/kg once a day
Protocol: Prophylactic effect of compound F on colitis was also studied in rats. Male SD rats, 7 weeks old, body weight around 210 g-240 g (Charles River) were purchased, acclimated for 1 week and used for the study. Except the normal group, the rats were allowed to freely drink a DSS (MP Biochemicals, M.W. 36,000-50,000, Lot No. 4556J) solution prepared to 5.5 w/v % for 8 days to induce colitis. Compound F at doses of 0.3, 1 and 3 mg/kg was orally administered once a day, daily, from one day before the start day of DSS drinking to one day before autopsy (day 7). To the control group was orally administered a solvent (1 vol % ethanol solution) at 5 mL/kg.
On day 8 from the start of DSS drinking, 1.25 w/v % Evans blue solution was administered at 0.2 mL/100 g from the tail vein. After 30 min, the rats were subjected to laparotomy under ether anesthesia and exsanguinated to death. Thereafter, the large intestine was dissected from just below the cecum to the anus, and the length was measured with a scale. […] The next day, the dry weight was measured, formamide (2 mL) was added, the dye was extracted at 50° C. overnight, and the level thereof was measured at 620 nm. A standard curve was prepared using an Evans blue standard solution, and the amount (mg) of Evans blue in 1 g of the colonic tissue was calculated to estimate degree of colonic tissue injury. […]

Cc1cccc([C@@H](C)[C@H](O)/C=C/[C@@H]2[C@@H]3[C@H](C[C@H]2O)O/C(=C\CCCc2nnn[nH]2)C3(F)F)c1 [Compound F, 4-[(Z)-(1S,5R,6R,7R)-6-[(1E,3R,4R)-3-hydroxy-4-(m-tolyl)-1-pentenyl]-7-hydroxy-2-oxa-4,4-difluoro-bicyclo[3.3.0]octan-3-ylidene]-1-(tetrazol-5-yl)butane]
Residual ratio of parent compound after β-oxidation reaction [1]: 91.6 ± 6.8% | Effect on the onset of colitis (stool score, colon shortening) [2]: superior prophylactic effect | Effect on heart rate [3]: little effect | Maximum decrease ratio of mean blood pressure [3]: 16.2% | Effect on increase of plasma ALT and plasma AST activities [4]: significantly and strongly suppressed the increase | Effect on stool score, colonic tissue injury and shortening of the large intestine [5]: suppressive tendency or significant suppressive effect
